Tests used:
PIK3CA (human) = PIK3CA (human) (UniProt P42336); assay: Assessment of PIK3CA Kinase Activity
PIK3CG (human) = PIK3CG (human) (UniProt P48736); assay: Assessment of PIK3CG Kinase Activity
PIK3CG (human), sequence (P48736 whole entry, looked up): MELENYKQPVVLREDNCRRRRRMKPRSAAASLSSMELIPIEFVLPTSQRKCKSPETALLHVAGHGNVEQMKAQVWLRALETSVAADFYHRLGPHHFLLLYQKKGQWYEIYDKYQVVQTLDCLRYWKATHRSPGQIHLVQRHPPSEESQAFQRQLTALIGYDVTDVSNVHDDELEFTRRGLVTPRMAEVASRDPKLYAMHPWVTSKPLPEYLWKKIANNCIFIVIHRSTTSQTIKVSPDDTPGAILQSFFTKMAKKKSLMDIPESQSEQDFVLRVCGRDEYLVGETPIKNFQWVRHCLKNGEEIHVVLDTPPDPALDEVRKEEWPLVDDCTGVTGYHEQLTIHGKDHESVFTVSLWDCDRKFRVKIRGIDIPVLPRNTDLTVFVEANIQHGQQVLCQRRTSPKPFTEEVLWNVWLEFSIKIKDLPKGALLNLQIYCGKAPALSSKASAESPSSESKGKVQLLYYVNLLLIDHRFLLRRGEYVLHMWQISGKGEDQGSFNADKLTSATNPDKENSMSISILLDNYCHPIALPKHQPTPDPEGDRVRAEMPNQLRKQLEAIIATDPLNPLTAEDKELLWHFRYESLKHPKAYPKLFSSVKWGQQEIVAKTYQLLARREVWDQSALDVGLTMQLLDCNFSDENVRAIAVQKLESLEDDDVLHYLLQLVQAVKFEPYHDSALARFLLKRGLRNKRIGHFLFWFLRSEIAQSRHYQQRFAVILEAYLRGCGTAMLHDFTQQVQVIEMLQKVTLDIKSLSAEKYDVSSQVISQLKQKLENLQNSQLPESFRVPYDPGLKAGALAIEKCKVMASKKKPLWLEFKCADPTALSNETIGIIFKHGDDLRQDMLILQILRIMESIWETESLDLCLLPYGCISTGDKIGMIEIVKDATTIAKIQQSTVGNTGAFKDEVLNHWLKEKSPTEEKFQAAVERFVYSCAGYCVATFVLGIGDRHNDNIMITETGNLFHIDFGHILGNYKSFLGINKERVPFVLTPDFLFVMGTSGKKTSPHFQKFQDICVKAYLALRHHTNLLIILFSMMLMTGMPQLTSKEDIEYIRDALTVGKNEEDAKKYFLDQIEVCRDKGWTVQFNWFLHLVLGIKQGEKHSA

PIK3CA (human), sequence (P42336 whole entry, looked up): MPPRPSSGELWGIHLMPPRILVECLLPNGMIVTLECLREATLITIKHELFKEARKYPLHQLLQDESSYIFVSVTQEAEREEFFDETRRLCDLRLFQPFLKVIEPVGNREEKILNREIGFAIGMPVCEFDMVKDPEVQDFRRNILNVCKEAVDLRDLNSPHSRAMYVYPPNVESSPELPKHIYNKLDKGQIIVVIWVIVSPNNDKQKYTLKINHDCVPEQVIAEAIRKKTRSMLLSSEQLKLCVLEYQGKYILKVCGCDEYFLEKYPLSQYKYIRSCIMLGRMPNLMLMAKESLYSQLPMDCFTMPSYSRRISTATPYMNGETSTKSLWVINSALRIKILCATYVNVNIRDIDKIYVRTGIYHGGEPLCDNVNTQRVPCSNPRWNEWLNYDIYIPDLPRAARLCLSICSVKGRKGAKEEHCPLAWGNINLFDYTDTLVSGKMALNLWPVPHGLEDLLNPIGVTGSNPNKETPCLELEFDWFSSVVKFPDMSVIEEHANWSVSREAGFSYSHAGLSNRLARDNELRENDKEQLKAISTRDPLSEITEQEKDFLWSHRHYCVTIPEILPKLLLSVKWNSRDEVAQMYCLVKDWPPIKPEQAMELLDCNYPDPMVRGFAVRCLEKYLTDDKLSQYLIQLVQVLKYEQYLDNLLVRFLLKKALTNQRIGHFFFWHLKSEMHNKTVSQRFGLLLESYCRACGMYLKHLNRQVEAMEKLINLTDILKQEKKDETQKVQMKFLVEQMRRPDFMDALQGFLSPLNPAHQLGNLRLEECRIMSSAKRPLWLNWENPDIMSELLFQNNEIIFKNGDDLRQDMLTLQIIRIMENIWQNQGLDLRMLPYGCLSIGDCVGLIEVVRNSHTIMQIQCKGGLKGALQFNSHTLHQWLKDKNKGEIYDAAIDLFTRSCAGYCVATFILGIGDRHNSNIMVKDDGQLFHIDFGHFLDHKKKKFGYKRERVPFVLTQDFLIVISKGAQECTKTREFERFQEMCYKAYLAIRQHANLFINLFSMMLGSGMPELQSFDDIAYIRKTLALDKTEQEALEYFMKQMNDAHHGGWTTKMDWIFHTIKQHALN

| SMILES | IC50 (PIK3CA (human)) [µM] | IC50 (PIK3CG (human)) [µM] |
| --- | --- | --- |
| CCN1CCc2c(nc(-c3ccc(NC(=O)Nc4ccc(N5CCC(N(C)C)CC5)cc4)cc3)nc2N2C3CCC2COC3)C1 | 1.07 | – |
| CCN1CCc2c(nc(-c3ccc(NC(=O)Nc4ccc(C(=O)N(C)C)cc4)cc3)nc2N2C3CCC2COC3)C1 | 0.554 | – |
| CN(C)C1CCN(C(=O)c2ccc(NC(=O)Nc3ccc(-c4nc5c(c(N6C7CCC6COC7)n4)CN(S(C)(=O)=O)C5)cc3)cc2)CC1 | 0.067 | 0.573 |
| CCN1CCc2c(nc(-c3ccc(NC(=O)Nc4ccc(CN5CCCC5)cc4)cc3)nc2N2C3CCC2COC3)C1 | 0.737 | – |
| CN(C)C1CCN(C(=O)c2ccc(NC(=O)Nc3ccc(-c4nc5c(c(N6CCOCC6)n4)CCNC5)cc3)cc2)CC1 | 0.031 | 0.224 |
| CN1CCN(c2ccc(NC(=O)Nc3ccc(-c4nc5c(c(N6C7CCC6COC7)n4)CCN(CC(F)(F)F)C5)cc3)cc2)CC1 | 1.34 | – |
| CCN1CCc2c(nc(-c3ccc(NC(=O)Nc4ccc(C#N)cc4)cc3)nc2N2C3CCC2COC3)C1 | 1.65 | – |
| CC(C)N1CCc2c(nc(-c3ccc(NC(=O)Nc4ccncc4)cc3)nc2N2C3CCC2COC3)C1 | 2.47 | – |
| CCCCC(CC)C(=O)N1CCc2c(nc(-c3ccc(NC(=O)NC)cc3)nc2N2CC3CCC(C2)O3)C1 (stereo not drawn) | – | 0.27 |
| CN(C)C1CCN(C(=O)c2ccc(NC(=O)Nc3ccc(-c4nc5c(c(N6CCOCC6)n4)CN(S(C)(=O)=O)C5)cc3)cc2)CC1 | 0.001 | 0.008 |
| CN(C)C1CCN(C(=O)c2ccc(NC(=O)Nc3ccc(-c4nc5c(c(N6CCOCC6)n4)CCN(S(C)(=O)=O)C5)cc3)cc2)CC1 | 0.315 | 3.11 |
| CCCCCCNC(=O)N1CCc2c(nc(-c3ccc(NC(=O)NC)cc3)nc2N2CC3CCC(C2)O3)C1 | – | 0.195 |
| CCN1CCc2c(nc(-c3ccc(NC(=O)Nc4ccc(CN(C)C)cc4)cc3)nc2N2C3CCC2COC3)C1 | 0.884 | – |
| CNC(=O)Nc1ccc(-c2nc3c(c(N4CC5CCC(C4)O5)n2)CCN(C(=O)NC2CCCCC2)C3)cc1 | – | 0.6 |
| CCN1CCc2c(nc(-c3ccc(NC(=O)Nc4ccc(OCCN(C)C)cc4)cc3)nc2N2C3CCC2COC3)C1 | 1.22 | – |
| CNC(=O)Nc1ccc(-c2nc3c(c(N4C5CCC4COC5)n2)CCNC3)cc1 | 3.76 | > 10 |
| CNC(=O)Nc1ccc(-c2nc3c(c(N4C5CCC4COC5)n2)CCN(C)C3)cc1 | 4.41 | > 10 |
| CNC(=O)Nc1ccc(-c2nc3c(c(N4CCOCC4)n2)CNC3)cc1 | 0.005 | 0.067 |
| CCN1CCc2c(nc(-c3ccc(NC(=O)Nc4ccc(C(=O)NC(C)C)cc4)cc3)nc2N2C3CCC2COC3)C1 | 0.528 | – |
| CN(C)C1CCN(C(=O)c2ccc(NC(=O)Nc3ccc(-c4nc5c(c(N6C7CCC6COC7)n4)CNC5)cc3)cc2)CC1 | 0.301 | > 10 |
| CCN1CCc2c(nc(-c3ccc(NC(=O)Nc4ccc(C(=O)N5CCCC5)cc4)cc3)nc2N2C3CCC2COC3)C1 | 0.22 | – |
| CCCCNC(=O)N1CCc2c(nc(-c3ccc(NC(=O)NC)cc3)nc2N2CC3CCC(C2)O3)C1 | – | 0.375 |
| CCN1CCc2c(nc(-c3ccc(NC(=O)Nc4ccc(C(F)(F)F)cc4)cc3)nc2N2C3CCC2COC3)C1 | 3.01 | – |

| SMILES | IC50 (PIK3CA (human)) [µM] | IC50 (PIK3CG (human)) [µM] |
| --- | --- | --- |
| CCN1CCc2c(nc(-c3ccc(NC(=O)Nc4ccc(C(=O)N5CCN(C)CC5)cc4)cc3)nc2N2C3CCC2COC3)C1 | 0.211 | – |
| O=C(Nc1ccncc1)Nc1ccc(-c2nc3c(c(N4C5CCC4COC5)n2)CC[N+](CCF)(CCF)C3)cc1 | 1.87 | – |
| CNC(=O)Nc1ccc(-c2nc3c(c(N4C5CCC4COC5)n2)CN(S(C)(=O)=O)C3)cc1 | 0.004 | 0.07 |
| CCN1CCc2c(nc(-c3ccc(NC(=O)NCCF)cc3)nc2N2C3CCC2COC3)C1 | 5.79 | – |
| CN1CCc2c(nc(-c3ccc(NC(=O)Nc4ccncc4)cc3)nc2N2C3CCC2COC3)C1 | 2.77 | – |
| CNC(=O)Nc1ccc(-c2nc3c(c(N4CC5CCC(C4)O5)n2)CCN(C(=O)NC(C)(C)C)C3)cc1 | – | 0.375 |
| CCN1CCc2c(nc(-c3ccc(NC(=O)Nc4ccccc4)cc3)nc2N2C3CCC2COC3)C1 | 0.917 | – |
| CS(=O)(=O)N1Cc2nc(-c3ccc(NC(=O)Nc4cccnc4)cc3)nc(N3C4CCC3COC4)c2C1 | 0.732 | > 10 |
| CN(C)C1CCN(C(=O)c2ccc(NC(=O)Nc3ccc(-c4nc5c(c(N6C7CCC6COC7)n4)CCNC5)cc3)cc2)CC1 | 0.321 | 3.72 |
| CCN1CCc2c(nc(-c3ccc(NC(=O)Nc4ccc(C(=O)OC)cc4)cc3)nc2N2C3CCC2COC3)C1 | 1.28 | – |
| CCCCOC(=O)N1CCc2c(nc(-c3ccc(NC(=O)NC)cc3)nc2N2CC3CCC(C2)O3)C1 | – | 0.375 |
| COC(=O)N1CCc2c(nc(-c3ccc(NC(=O)Nc4ccncc4)cc3)nc2N2C3CCC2COC3)C1 | 0.377 | – |
| O=C(Nc1ccncc1)Nc1ccc(-c2nc3c(c(N4C5CCC4COC5)n2)CCN(CC(F)(F)F)C3)cc1 | 1.71 | – |
| CCCCCCC(=O)N1CCc2c(nc(-c3ccc(NC(=O)NC)cc3)nc2N2CC3CCC(C2)O3)C1 | – | 0.96 |
| CCN1CCc2c(nc(-c3ccc(NC(=O)Nc4ccc(CN5CCN(C)CC5)cc4)cc3)nc2N2C3CCC2COC3)C1 | 1.28 | – |
| CCN1CCc2c(nc(-c3ccc(NC(=O)Nc4ccc(N5CCN(C)CC5)cc4)cc3)nc2N2C3CCC2COC3)C1 | 1.92 | – |
| CCN1CCc2c(nc(-c3ccc(NC(=O)Nc4ccc(C(=O)O)cc4)cc3)nc2N2C3CCC2COC3)C1 | 4.13 | – |
| CN(C)CC(=O)N1CCc2c(nc(-c3ccc(NC(=O)Nc4ccncc4)cc3)nc2N2C3CCC2COC3)C1 | 0.807 | – |
| CCN1CCc2c(nc(-c3ccc(NC(=O)Nc4ccc(C(=O)NC)cc4)cc3)nc2N2C3CCC2COC3)C1 | 0.861 | – |
| CNC(=O)Nc1ccc(-c2nc3c(c(N4CC5CCC(C4)O5)n2)CCN(C(=O)CCC2CCCC2)C3)cc1 | – | 1.05 |
| CNC(=O)Nc1ccc(-c2nc3c(c(N4CC5CCC(C4)O5)n2)CCN(C(=O)OCC(C)C)C3)cc1 | – | 0.35 |
| CCN1CCc2c(nc(-c3ccc(NC(=O)Nc4ccc(C(N)=O)cc4)cc3)nc2N2C3CCC2COC3)C1 | 1.01 | – |
| CCN1CCc2c(nc(-c3ccc(NC(=O)NC4CC4)cc3)nc2N2C3CCC2COC3)C1 | 4.85 | – |

The remaining lines, values ahead:

| IC50 (PIK3CA (human)) [µM] | IC50 (PIK3CG (human)) [µM] | SMILES |
| --- | --- | --- |
| 0.039 | 3.39 | CNC(=O)Nc1ccc(-c2nc3c(c(N4CC5CCC(C4)O5)n2)CNC3)cc1 |
| 0.459 | – | CC(C)(C)OC(=O)N1CCc2c(nc(-c3ccc(NC(=O)Nc4ccncc4)cc3)nc2N2CC3CCC(C2)O3)C1 |
| 0.025 | 0.841 | O=C(Nc1ccc(-c2nc3c(c(N4C5CCC4COC5)n2)CNC3)cc1)Nc1cccnc1 |
| – | 0.3 | CNC(=O)Nc1ccc(-c2nc3c(c(N4CC5CCC(C4)O5)n2)CCN(C(=O)C(C)(C)C)C3)cc1 |
| 0.006 | 0.116 | CNC(=O)Nc1ccc(-c2nc3c(c(N4CC5CCC(C4)O5)n2)CN(S(C)(=O)=O)C3)cc1 |
| 0.005 | 0.068 | O=C(Nc1ccc(-c2nc3c(c(N4CCOCC4)n2)CNC3)cc1)Nc1cccnc1 |
| 0.111 | 1.37 | CN1CCc2c(nc(-c3ccc(NC(=O)Nc4cccnc4)cc3)nc2N2CCOCC2)C1 |
| – | 3.1 | CNC(=O)Nc1ccc(-c2nc3c(c(N4CC5CCC(C4)O5)n2)CCN(S(=O)(=O)c2ccc(Cl)cc2)C3)cc1 |
| 0.674 | 9.5 | CN1CCc2c(nc(-c3ccc(NC(=O)Nc4cccnc4)cc3)nc2N2CC3CCC(C2)O3)C1 |
| 0.0035 | 0.044 | CS(=O)(=O)N1CCc2c(nc(-c3ccc(NC(=O)Nc4cccnc4)cc3)nc2N2CCOCC2)C1 |
| 0.557 | > 10 | CNC(=O)Nc1ccc(-c2nc3c(c(N4CC5CCC(C4)O5)n2)CCN(S(C)(=O)=O)C3)cc1 |
| – | 0.205 | CNC(=O)Nc1ccc(-c2nc3c(c(N4CC5CCC(C4)O5)n2)CCN(S(=O)(=O)c2ccccc2)C3)cc1 |
| 0.33 | – | O=C(Nc1ccncc1)Nc1ccc(-c2nc3c(c(N4CC5CCC(C4)O5)n2)CCN(CCF)C3)cc1 |
| – | 0.36 | CNC(=O)Nc1ccc(-c2nc3c(c(N4CC5CCC(C4)O5)n2)CCN(C(=O)c2ccccc2F)C3)cc1 |
| 0.334 | > 10 | CS(=O)(=O)N1Cc2nc(-c3ccc(NC(=O)Nc4cccnc4)cc3)nc(N3CC4CCC(C3)O4)c2C1 |
| 0.118 | 3.99 | CS(=O)(=O)N1CCc2c(nc(-c3ccc(NC(=O)Nc4cccnc4)cc3)nc2N2C3CCC2COC3)C1 |

| IC50 (PIK3CA (human)) [µM] | IC50 (PIK3CG (human)) [µM] | SMILES |
| --- | --- | --- |
| – | 0.3 | CNC(=O)Nc1ccc(-c2nc3c(c(N4CC5CCC(C4)O5)n2)CCN(C(=O)c2c(F)cccc2F)C3)cc1 |
| – | 3.35 | CNC(=O)Nc1ccc(-c2nc3c(c(N4CC5CCC(C4)O5)n2)CCN(C(=O)c2ccc(C(C)(C)C)cc2)C3)cc1 |
| 1.12 | 3.95 | CN(C)C1CCN(C(=O)c2ccc(NC(=O)Nc3ccc(-c4nc5c(c(N6CC7CCC(C6)O7)n4)CCNC5)cc3)cc2)CC1 |
| 2.03 | – | CC(C)N1CCc2c(nc(-c3ccc(NC(=O)Nc4ccncc4)cc3)nc2N2CC3CCC(C2)O3)C1 |
| 0.776 | 14 | O=C(Nc1ccc(-c2nc3c(c(N4CC5CCC(C4)O5)n2)CCNC3)cc1)Nc1cccnc1 |
| – | 4 | CNC(=O)Nc1ccc(-c2nc3c(c(N4CC5CCC(C4)O5)n2)CCN(S(=O)(=O)c2ccc(C#N)cc2)C3)cc1 |
| – | 0.19 | CNC(=O)Nc1ccc(-c2nc3c(c(N4CC5CCC(C4)O5)n2)CCN(S(=O)(=O)N(C)C)C3)cc1 |
| – | 0.545 | CCCCC(=O)N1CCc2c(nc(-c3ccc(NC(=O)NC)cc3)nc2N2CC3CCC(C2)O3)C1 |
| 0.101 | – | COCCN1CCc2c(nc(-c3ccc(NC(=O)Nc4ccncc4)cc3)nc2N2CC3CCC(C2)O3)C1 |
| 0.059 | 1.86 | O=C(Nc1ccc(-c2nc3c(c(N4CC5CCC(C4)O5)n2)CNC3)cc1)Nc1cccnc1 |
| 0.153 | – | CCN1CCc2c(nc(-c3ccc(NC(=O)Nc4ccncc4)cc3)nc2N2CC3CCC(C2)O3)C1 |
| 0.107 | 1.24 | CS(=O)(=O)N1CCc2c(nc(-c3ccc(NC(=O)Nc4cccnc4)cc3)nc2N2CC3CCC(C2)O3)C1 |
| – | 0.6 | CNC(=O)Nc1ccc(-c2nc3c(c(N4CC5CCC(C4)O5)n2)CCN(S(=O)(=O)c2ccc(F)cc2)C3)cc1 |
| – | 0.83 | CNC(=O)Nc1ccc(-c2nc3c(c(N4CC5CCC(C4)O5)n2)CCN(C(=O)COC)C3)cc1 |
| – | 0.9 | CNC(=O)Nc1ccc(-c2nc3c(c(N4CC5CCC(C4)O5)n2)CCN(C(=O)c2ccccc2OC)C3)cc1 |
| – | 0.375 | C=CCNC(=O)N1CCc2c(nc(-c3ccc(NC(=O)NC)cc3)nc2N2CC3CCC(C2)O3)C1 |

Reference: the Kinase Knowledgebase extract (Sharma et al. 2016)
